Some test systems named below: CCRF-CEM leukemia; SF-268 CNS; NCI-H23 lung; NCI-H460 lung; MALME-3M melanoma; NCI-H226 lung; HCC-2998 colon; LOX IMVI melanoma; A498 renal; SF-539 CNS.
Holding throughout (test): NCI anticancer screen, dose series, 48 h

Structures are written as SMILES. Values joined by “and” are separate entries in the source; they are usually repeats but may differ in a detail not shown here. Identical values can stand only once.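 Dose response: 5 concentrations. Exposure: 48 h. Format: 96-well plates. Endpoint: linear interpolation; highest concentration if not reached. GI50 = concentration required for 50% inhibition of growth. At the TGI there is no net growth.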

Turning to `COc1cnc2c(c1)C(=O)c1c-2n(CCCN2CCCC2)c(=O)c2cc(Cl)ccc12`, the GI50 with CCRF-CEM leukemia was 0.025 µM; with SF-268 CNS, 0.17 µM; in the assay on NCI-H23 lung, 0.857 µM; in the assay on NCI-H460 lung, 0.0217 µM; in the assay on MALME-3M melanoma, 5.9 µM; in the assay with NCI-H226 lung, 3.27 µM. The GI50 is 5.07 µM in the assay on HCC-2998 colon, 0.0423 µM in the assay with LOX IMVI melanoma and 0.384 µM in the assay on A498 renal. In addition, the TGI came to 9.05 µM in the assay on CCRF-CEM leukemia; 9.38 µM with SF-268 CNS; 9.16 µM in the assay with NCI-H23 lung; 5.51 µM in the assay on NCI-H460 lung; 15.3 µM with MALME-3M melanoma; 14.4 µM with NCI-H226 lung. The TGI stood at 12.1 µM in the assay on HCC-2998 colon, 5.96 µM in the assay on LOX IMVI melanoma and 6.01 µM with A498 renal.

Turning to `CCC1CN2CCc3cc(OC)c(OC)cc3C2CC1CC1c2cc(OC)c(OC)cc2CCN1C(=O)CNC(=O)OC(C)(C)C` (centres undefined), the TGI in the assay with CCRF-CEM leukemia came out at 15.2 µM; in the assay with SF-268 CNS it was 70.3 µM; in the assay on NCI-H23 lung, 56.1 µM; with NCI-H460 lung, 46.4 µM; in the assay with MALME-3M melanoma, 39.6 µM; in the assay on NCI-H226 lung it was 53 µM. Also, the TGI in the assay on HCC-2998 colon amounted to 12.3 µM; in the assay on LOX IMVI melanoma it was 73.6 µM; in the assay on A498 renal, 56.2 µM.

As for `CC(C)=CC(=O)CC(=O)C(=O)Nc1ccc(Cl)c(Cl)c1`, the TGI with CCRF-CEM leukemia, in the assay with SF-268 CNS, in the assay on SF-539 CNS, in the assay on NCI-H23 lung, in the assay on NCI-H460 lung and with MALME-3M melanoma was > 100 µM each time. The TGI in the assay on NCI-H226 lung, in the assay with HCC-2998 colon and in the assay with A498 renal was > 100 µM in each case.

On to `CC[CH2][Pb]([CH2]CC)([CH2]CC)[NH]S(=O)(=O)c1ccc(C)cc1`, for which the GI50 is 0.0371 µM in the assay on CCRF-CEM leukemia; 0.035 µM with SF-268 CNS; 0.0659 µM in the assay on SF-539 CNS; 0.0178 µM with NCI-H23 lung; 0.137 µM with NCI-H460 lung; 0.0431 µM in the assay with MALME-3M melanoma. The GI50 was 0.0727 µM with HCC-2998 colon, 0.025 µM with LOX IMVI melanoma and 0.0215 µM in the assay with A498 renal. Moreover, the TGI in the assay with CCRF-CEM leukemia turned out to be 0.23 µM; in the assay with SF-268 CNS, 0.117 µM; in the assay on SF-539 CNS, 0.155 µM; with NCI-H23 lung, 0.0375 µM; with NCI-H460 lung it was 0.277 µM; in the assay with MALME-3M melanoma, 0.174 µM. For the same molecule, the TGI in the assay on HCC-2998 colon was determined as 0.2 µM; with LOX IMVI melanoma, 0.0655 µM; in the assay on A498 renal, 0.058 µM.

For `Cc1c2ccncc2c(C)c2c1[nH]c1ccc(OC(C)(C)C)cc12`, the TGI with CCRF-CEM leukemia came out at 5.77 µM; in the assay on SF-268 CNS it was 25.5 µM; in the assay with SF-539 CNS it was 2.93 µM; in the assay with NCI-H23 lung it was 24.9 µM; with MALME-3M melanoma, 3.31 µM; with NCI-H226 lung, 14.8 µM. The TGI in the assay with HCC-2998 colon turned out to be 3.78 µM; in the assay with LOX IMVI melanoma it was 7.53 µM; in the assay with A498 renal, 26.2 µM.

As for `Cn1cc(-c2ccc(CNc3cc(-c4cnc5cc(OCCCN6CCCC6)ccn45)ncn3)cc2)cn1`, the GI50 is 2.72 µM in the assay on CCRF-CEM leukemia; 1.9 µM in the assay with SF-268 CNS; 1.17 µM with SF-539 CNS; 1.77 µM with NCI-H460 lung; 1.28 µM in the assay with MALME-3M melanoma; 2.03 µM in the assay with NCI-H226 lung. Further, the figures for the GI50 with HCC-2998 colon, with LOX IMVI melanoma and with A498 renal were 2.21 µM, 1.75 µM and 16.2 µM, respectively. The TGI with CCRF-CEM leukemia is > 100 µM; in the assay with SF-268 CNS, 4.19 µM; in the assay with SF-539 CNS, 2.46 µM; in the assay with NCI-H460 lung, 3.37 µM; in the assay with MALME-3M melanoma, 2.94 µM; with NCI-H226 lung, 4.81 µM. Further, the values for the TGI in the assay on HCC-2998 colon, in the assay on LOX IMVI melanoma and in the assay with A498 renal were 5.71 µM, 3.4 µM and 31.9 µM, respectively.

For `CCCCCc1c(C)[nH]c(/C=C2\N=C(c3ccc[nH]3)C=C2Oc2ccc(Cl)cc2)c1C`, the GI50 in the assay with CCRF-CEM leukemia is 0.0392 µM and < 0.01 µM; in the assay with SF-268 CNS, 0.0767 µM and 0.0338 µM; in the assay with SF-539 CNS, 0.125 µM and 0.0406 µM; with NCI-H23 lung it was 0.16 µM and 0.0739 µM; in the assay on NCI-H460 lung, 0.0545 µM and 0.024 µM; in the assay on MALME-3M melanoma it was 0.337 µM and 0.129 µM. Further, the GI50 with HCC-2998 colon is 0.0439 µM and 0.0241 µM; with LOX IMVI melanoma, 0.0204 µM and < 0.01 µM; in the assay with A498 renal it was 0.134 µM and 0.033 µM. The TGI in the assay on CCRF-CEM leukemia was > 100 µM; with SF-268 CNS, 3.18 µM; in the assay with SF-539 CNS it was 0.992 µM and 0.474 µM; in the assay with NCI-H23 lung it was 3.25 µM and 2.62 µM; with NCI-H460 lung, 12 µM; in the assay on MALME-3M melanoma, 1.6 µM and 1.54 µM. Moreover, the TGI in the assay on HCC-2998 colon was 2.67 µM and 7.35 µM; in the assay on LOX IMVI melanoma it was 0.046 µM and 0.0473 µM; in the assay on A498 renal it was 3.33 µM and 0.609 µM.

For the molecule `Nc1nc(OCc2ccccc2)nc2[nH]ncc12`, the GI50 in the assay with SF-268 CNS is 17.1 µM; in the assay with SF-539 CNS, 23.3 µM; in the assay on NCI-H23 lung, 15.7 µM; in the assay on NCI-H460 lung, 24 µM; in the assay on NCI-H226 lung, 14.8 µM; in the assay with LOX IMVI melanoma it was 15 µM. Moreover, the GI50 with A498 renal was 11.2 µM. Further, the TGI was determined as 48.4 µM with SF-268 CNS; 47.7 µM in the assay on SF-539 CNS; 32.7 µM in the assay on NCI-H23 lung; 88.8 µM in the assay with NCI-H460 lung; 32.6 µM in the assay with NCI-H226 lung; 36.2 µM in the assay with LOX IMVI melanoma. Moreover, in the assay with A498 renal, the TGI worked out at 26.4 µM.

With `CC(C)[C@@H](COC(C)(C)C)N=CN1CCc2c([nH]c3ccccc23)C1`, the TGI in the assay on CCRF-CEM leukemia, with SF-268 CNS, in the assay on SF-539 CNS, in the assay on NCI-H23 lung, in the assay with NCI-H460 lung and with NCI-H226 lung was > 100 µM each time. Besides, the TGI with HCC-2998 colon, with LOX IMVI melanoma and in the assay with A498 renal was > 100 µM throughout.

For `C/C=C(/CCCCNCCCC)[Si](C)(C)C`, the TGI is 73.4 µM with CCRF-CEM leukemia; 26.2 µM in the assay on SF-268 CNS; 28.4 µM in the assay on SF-539 CNS; 31.9 µM in the assay with NCI-H23 lung; 31.9 µM with NCI-H460 lung; 33.2 µM in the assay on MALME-3M melanoma. The TGI was determined as 18.2 µM in the assay on HCC-2998 colon, 28.3 µM in the assay with LOX IMVI melanoma and 29.4 µM in the assay on A498 renal.

For `C[C@H](CSC(=O)c1ccccc1)C(=O)N1c2ccccc2C[C@H]1C(=O)O`, the TGI in the assay on CCRF-CEM leukemia was > 100 µM; in the assay with SF-268 CNS, > 100 µM; in the assay on SF-539 CNS, > 100 µM; with NCI-H23 lung it was > 100 µM; in the assay on NCI-H460 lung, > 10 µM; in the assay with NCI-H226 lung, > 100 µM. The TGI with HCC-2998 colon and in the assay with A498 renal was > 100 µM each time.

The values above are taken from PubChem BioAssay (NCI).
